Values of other authors, collected in patent US10918627B2, “Convergent and enantioselective total synthesis of Communesin analogs” (Massachusetts Institute of Technology, priority 2016, dated 2021).
In brackets after ≈: the same amount, converted by molar mass.

Experiments:
[1] = tested on: third instar larvae of silkworms; conditions: Hayashi 2004
[2] = tested on: bradycardia caused by astemidazole; conditions: at different concentrations, Fan 2015
[3] = tested on: human leukemia cell lines; conditions: array of human leukemia cell lines; Jadulco 2004
[4] = tested on: brine shrimp Artemia salina; conditions: Jadulco 2004
[5] = tested on: mouse P-388 lymphocytic leukemia cells; conditions: cultured mouse P-388 lymphocytic leukemia cells; Numata 1993
cardiovascular vessels = conditions: Fan 2015
[6] = Fan 2015

Row | Molecule | insecticidal activity (comparative, in words) [1] | mitigative effect on bradycardia [2] | anti-proliferative activity [3] | LD50 insecticidal ([1]; oral administration) | LD50 toxicity [4] [µg/mL] | ED50 cytotoxicity [5] [µg/mL] | promotion of the function of cardiovascular vessels (cardiovascular vessels) | vasculogenetic activity [6]
1 | Communesin E [Compound 3] | lower insecticidal activities | – | – | – | – | – | – | –
2 | C/C=C/C=C/C(=O)N1CC[C@@]23c4ccccc4N[C@@H]4N(C)c5cccc6c5[C@@]42CCN([C@@H]13)[C@@H]6[C@H]1OC1(C)C [Compound 4, Communesin B] | most active | significant mitigative effect | moderate anti-proliferative activity | 5 μg/g of diet | 0.30 | 0.45 (≈ 0.885 µM) | – | –
3 | CC(=O)N1CC[C@@]23c4ccccc4N[C@@H]4N(C)c5cccc6c5[C@@]42CCN([C@@H]6C=C(C)C)[C@@H]13 [Compound 1, (−)-Communesin F] | lower insecticidal activities | – | – | – | – | – | – | –
4 | CCC[C@H](O)CC(=O)N1CC[C@@]23c4ccccc4N[C@@H]4N(C)c5cccc6c5[C@@]42CCN([C@@H]13)[C@@H]6[C@H]1OC1(C)C [Compound 9, communesin I] | – | significant mitigative effect | – | – | – | – | moderately promote | moderate vasculogenetic activity
5 | C/C=C/C=C/C(=O)N1CC[C@@]23c4ccccc4N[C@@H]4Nc5cccc6c5[C@@]42CCN([C@@H]13)[C@@H]6[C@H]1OC1(C)C [Compound 5, communesin C] | – | – | moderate anti-proliferative activity | – | 1.96 | – | – | –
6 | CC(=O)N1CC[C@@]23c4ccccc4N[C@@H]4N(C)c5cccc6c5[C@@]42CCN([C@@H]13)[C@@H]6[C@H]1OC1(C)C [Compound 2, Communesin A] | lower insecticidal activities | significant mitigative effect | – | – | – | 3.5 (≈ 7.67 µM) | moderately promote | moderate vasculogenetic activity
7 | C/C=C/C=C/C(=O)N1CC[C@@]23c4ccccc4N[C@@H]4N(C=O)c5cccc6c5[C@@]42CCN([C@@H]13)[C@@H]6[C@H]1OC1(C)C [Compound 6, communesin D] | lower insecticidal activities | – | moderate anti-proliferative activity | – | 0.57 | – | – | –
